Our source for the IC50, Activity and inhibition values is ChEMBL document CHEMBL5346930, “Discovery of novel N-benzylarylamide-dithiocarbamate based derivatives as dual inhibitors of tubulin polymerization and LSD1 that inhibit gastric cancers” (Eur J Med Chem, 2023).

Molecules are shown by their SMILES. The source made the active and inactive calls. No cut-off for these calls is given here.

Test [1] has as its system HCT-116. Kind of test: cells. Conditions: Homo sapiens, HCT-116, 48 h.
Description: Antiproliferative activity against human HCT-116 cells assessed as inhibition of cell growth incubated for 48 hrs by MTT assay
Test [2] has as its target Tubulin. Kind of test: Inhibition of tubulin polymerization (unknown origin) assessed as reduction in fluorescence intensity measured every 60 secs for 1 hr by microplate reader analysis. Type of test: protein-complex assay, Homo sapiens.
Test [3] has as its system MGC-803. Kind of test: Induction of apoptosis in human MGC-803 cells assessed as increase in cleaved caspase-3 level at 0 to 24 nmol/L incubated for 48 hrs by Western blot analysis. The test is classed as functional, cell-based. Conditions: dose 0-24 nmol/L.
For test [4], the system named is SGC-7901. The test can be described thus: Induction of cell cycle arrest in human SGC-7901 cells assessed as increase in p-Histone H3 protein expression incubated for 48 hrs by Western blot analysis. The test is classed as functional, cell-based. As to conditions: dose 0-30 nmol/L. (In general: Immunoblotting shows a protein as a band on a membrane.)
Test [5] concerns MGC-803. The test can be described thus: Antiproliferative activity against human MGC-803 cells assessed as inhibition of cell growth incubated for 48 hrs by MTT assay.
Test [6] deals with MGC-803. Kind of test: Induction of morphological changes in human MGC-803 cells assessed as reduction in cell density at 0 to 24 nmol/L incubated for 48 hrs by bright field microscopic analysis. Type of test: functional, cell-based. Conditions: dose 0-24 nmol/L.
Test [7] relates to MGC-803. The test can be described thus: Induction of morphological changes in human MGC-803 cells assessed as appearance of oblate and bright cells at 0 to 24 nmol/L incubated for 48 hrs by bright field microscopic analysis. Type of test: functional, cell-based. As to conditions: dose 0-24 nmol/L.
The test system of test [8] is MGC-803. The test can be described thus: Induction of apoptosis in human MGC-803 cells assessed as activation of caspase-3 at 0 to 24 nmol/L incubated for 48 hrs by Western blot analysis. The test is classed as functional, cell-based. As to conditions: dose 0-24 nmol/L.
Test [9] deals with MGC-803. Kind of test: Induction of morphological changes in human MGC-803 cells assessed as appearance of broken nucleus at 24 nM incubated for 48 hrs by DAPI staining based analysis. The test is classed as functional, cell-based.
Test [10] has as its system MGC-803. Kind of test: Induction of apoptosis in human MGC-803 cells assessed as downregulation of Mcl-1 protein expression incubated for 48 hrs by Western blot analysis. Type of test: functional, cell-based. As to conditions: dose 0-24 nmol/L.
Test [11] has as its system MGC-803. The test can be described thus: Induction of cell cycle arrest in human MGC-803 cells assessed as increase in p-Histone H3 protein expression incubated for 48 hrs by Western blot analysis. The test is classed as functional, cell-based. As to conditions: dose 0-24 nmol/L.
Test [12] addresses Lysine-specific histone demethylase 1A (Homo sapiens, UniProt O60341). The test can be described thus: Inhibition of recombinant LSD1 (unknown origin) using H3K4me2 peptide as substrate preincubated for 10 mins followed by substrate addition and measured after 30 mins by amplex red based fluorescence microplate reader analysis.
Test [13] deals with MGC-803. The test can be described thus: Induction of DNA damage in human MGC-803 cells assessed as DNA fragmentation by measuring increase in comet tails by fluorescence microscope based comet assay. Conditions: dose 0-24 nmol/L. The test is classed as functional, cell-based.
Test [14] concerns SGC-7901. The test can be described thus: Inhibition of cell migration in human SGC-7901 cells assessed as reduction in rate of wound healing at 4 nmol/L measured after 0 to 48 hrs. Type of test: functional, cell-based. As to conditions: time 0-48 hrs.
The test system of test [15] is MGC-803. Kind of test: Induction of apoptosis in human MGC-803 cells assessed as activation of caspase-7 at 0 to 24 nmol/L incubated for 48 hrs by Western blot analysis. Conditions: dose 0-24 nmol/L. The test is classed as functional, cell-based.
In test [16] the test system is SGC-7901. Kind of test: Induction of apoptosis in human SGC-7901 cells assessed as downregulation of Mcl-1 protein expression incubated for 48 hrs by Western blot analysis. Conditions: dose 0-30 nmol/L. The test is classed as functional, cell-based.
Test [17] has as its system MGC-803. The test can be described thus: Antiproliferative activity against human MGC-803 cells assessed as inhibition of cell growth at 10 to 30 nM by MTT assay. Type of test: functional, cell-based. As to conditions: dose 10-30 nM, time 0-60 hrs, TDE = time-dependent effect. A general note: Tetrazolium assays rely on reduction of a dye to a coloured formazan, in cell work by metabolically active cells.

Take `COc1ccc(CN(C(=O)CSC(=S)N2CCN(c3ccc(N)cc3)CC2)c2cc(OC)c(OC)c(OC)c2)cc1O`: the IC50 came out at 44 nM in test [1], 3060 nM in test [2] and 2810 nM in test [12]. Further, the result in test [3], in test [6], in test [7], in test [8], in [9] and in test [15] was Active. Besides, the Activity result in [4], in test [5], in [10], in [11], in [13] and in test [16] was “Dose-Dependent Effect” throughout. The Activity entry in test [17] was “Tde”. The inhibition entry in test [14] was “Active”.

What is called IC50 is the point on the concentration scale where inhibition reaches its midpoint.
